This is an account of results in patent publication US9770460B2, “Non-digestible oligosaccharides for oral induction of tolerance against dietary proteins” (N.V. NUTRICIA, priority 2010, dated 2017).

Where no end group is shown, it is not given here.

The subject of the experiment is whey sensitized animals. Description: Mouse model of whey protein allergy: ear swelling after oral pretreatment with peptide mixtures (Example 4). Type of experiment: in vivo, mice. The settings on record: Example 4, pretreatment prior to whey sensitization. An excerpt: Three- to four-week-old pathogen free female C3H/HeOuJ mice (Charles River Laboratories, Maastricht, The Netherlands) were used for this experiment. The mice were maintained on cow's milk protein free standard mouse chow (AIN-93G soy, Special Diets Services, Wijk bij Duurstede, the Netherlands).
The AIN-93G control diet was mixed with non-digestible oligosaccharides (2% w/w). The same non-digestible oligosaccharides were used as in example 1.
18-amino-acid-long synthetic peptides of beta-lactoglobulin were obtained from JPT Peptide Technologies (Berlin, Germany) (Table 4). Whey protein was purchased from DMV International (Veghel, The Netherlands). […]. Phosphate-buffered saline (PBS) was obtained from Cambrex Bio Science (Verviers, Belgium).
Shortly prior to the experiment, the peptides were suspended in PBS. The peptides were combined in three mixtures, namely peptides 1-4 in mixture 1, peptides 5-7 in mixture 2 and peptides 8 and 9 in mixture 3. The final concentration of each peptide in the mixture was 8 mg/ml. […] Before and 1 h after the challenge, the ear thickness was measured using a digital micrometer (Mitutoyo, Veenendaal, the Netherlands). The difference in the ear thickness (ear swelling) is an indication for the acute allergic response and is expressed as delta μm.

Regarding “AASDISLLDAQSAPLRVY [Peptide 3, beta-lactoglobulin AA 25-42]”, the “allergic response / synergy with NDO, in words” value is recorded as “did not show these synergistic effects with NDO”.
